Data published in ChEMBL document CHEMBL4813932, “Terpenoid Constituents of Perovskia artemisioides Aerial Parts with Inhibitory Effects on Bacterial Biofilm Growth” (2021).

How the values were obtained:
Assay in all cases: microbe, parasite or virus in culture
Format in all cases: functional
Listeria monocytogenes [1] = conditions: ATCC 7644, time 48 hrs
Description: Antibiofilm activity against Listeria monocytogenes ATCC 7644 assessed as inhibition of biofilm formation at 4 ug/ml measured after 48 hrs by crystal violet staining based assay relative to control

Pseudomonas aeruginosa [2] = conditions: ATCC 50071, time 48 hrs
Description: Antibiofilm activity against Pseudomonas aeruginosa ATCC 50071 assessed as inhibition of biofilm formation at 4 ug/ml measured after 48 hrs by crystal violet staining based assay relative to control

Staphylococcus aureus [3] = conditions: ATCC 25923, time 48 hrs
Description: Antibiofilm activity against Staphylococcus aureus ATCC 25923 assessed as inhibition of biofilm formation at 4 ug/ml measured after 48 hrs by crystal violet staining based assay relative to control

Acinetobacter baumannii [4] = conditions: ATCC 19606 = CIP 70.34 = JCM 6841, time 48 hrs
Description: Antibiofilm activity against Acinetobacter baumannii ATCC 19606 assessed as inhibition of biofilm formation at 4 ug/ml measured after 48 hrs by crystal violet staining based assay relative to control

[5] = system: Pectobacterium carotovorum; conditions: ATCC 15713, time 48 hrs
Description: Antibiofilm activity against Pectobacterium carotovorum ATCC 15713 assessed as inhibition of biofilm formation at 4 ug/ml measured after 48 hrs by crystal violet staining based assay relative to control

Listeria monocytogenes [6] = conditions: ATCC 7644, time 48 hrs; remark: listed apart in the source
Description: Antibiofilm activity against Listeria monocytogenes ATCC 7644 assessed as inhibition of biofilm formation at 8 ug/ml measured after 48 hrs by crystal violet staining based assay relative to control

Pseudomonas aeruginosa [7] = conditions: ATCC 50071, time 48 hrs; remark: listed apart in the source
Description: Antibiofilm activity against Pseudomonas aeruginosa ATCC 50071 assessed as inhibition of biofilm formation at 8 ug/ml measured after 48 hrs by crystal violet staining based assay relative to control

Staphylococcus aureus [8] = conditions: ATCC 25923, time 48 hrs; remark: listed apart in the source
Description: Antibiofilm activity against Staphylococcus aureus ATCC 25923 assessed as inhibition of biofilm formation at 8 ug/ml measured after 48 hrs by crystal violet staining based assay relative to control

Acinetobacter baumannii [9] = conditions: ATCC 19606 = CIP 70.34 = JCM 6841, time 48 hrs; remark: listed apart in the source
Description: Antibiofilm activity against Acinetobacter baumannii ATCC 19606 assessed as inhibition of biofilm formation at 8 ug/ml measured after 48 hrs by crystal violet staining based assay relative to control

[10] = system: Pectobacterium carotovorum; conditions: ATCC 15713, time 48 hrs; remark: listed apart in the source
Description: Antibiofilm activity against Pectobacterium carotovorum ATCC 15713 assessed as inhibition of biofilm formation at 8 ug/ml measured after 48 hrs by crystal violet staining based assay relative to control

Escherichia coli [11] = conditions: DSM 8579, time 48 hrs
Description: Antibiofilm activity against Escherichia coli DSM 8579 assessed as inhibition of biofilm formation at 40 ug/ml measured after 48 hrs by crystal violet staining based assay relative to control

Escherichia coli [12] = conditions: DSM 8579, time 48 hrs; remark: listed apart in the source
Description: Antibiofilm activity against Escherichia coli DSM 8579 assessed as inhibition of biofilm formation at 80 ug/ml measured after 48 hrs by crystal violet staining based assay relative to control

Listeria monocytogenes [13] = conditions: ATCC 7644, time 48 hrs; remark: listed apart in the source
Description: Antibiofilm activity against Listeria monocytogenes ATCC 7644 assessed as inhibition of bacterial metabolism within the biofilm at 4 ug/ml measured after 48 hrs by MTT assay relative to control

Pseudomonas aeruginosa [14] = conditions: ATCC 50071, time 48 hrs; remark: listed apart in the source
Description: Antibiofilm activity against Pseudomonas aeruginosa ATCC 50071 assessed as inhibition of bacterial metabolism within the biofilm at 4 ug/ml measured after 48 hrs by MTT assay relative to control

Staphylococcus aureus [15] = conditions: ATCC 25923, time 48 hrs; remark: listed apart in the source
Description: Antibiofilm activity against Staphylococcus aureus ATCC 25923 assessed as inhibition of bacterial metabolism within the biofilm at 4 ug/ml measured after 48 hrs by MTT assay relative to control

Acinetobacter baumannii [16] = conditions: ATCC 19606 = CIP 70.34 = JCM 6841, time 48 hrs; remark: listed apart in the source
Description: Antibiofilm activity against Acinetobacter baumannii ATCC 19606 assessed as inhibition of bacterial metabolism within the biofilm at 4 ug/ml measured after 48 hrs by MTT assay relative to control

[17] = system: Pectobacterium carotovorum; conditions: ATCC 15713, time 48 hrs; remark: listed apart in the source
Description: Antibiofilm activity against Pectobacterium carotovorum ATCC 15713 assessed as inhibition of bacterial metabolism within the biofilm at 4 ug/ml measured after 48 hrs by MTT assay relative to control

Listeria monocytogenes [18] = conditions: ATCC 7644, time 48 hrs; remark: listed apart in the source
Description: Antibiofilm activity against Listeria monocytogenes ATCC 7644 assessed as inhibition of bacterial metabolism within the biofilm at 8 ug/ml measured after 48 hrs by MTT assay relative to control

Pseudomonas aeruginosa [19] = conditions: ATCC 50071, time 48 hrs; remark: listed apart in the source
Description: Antibiofilm activity against Pseudomonas aeruginosa ATCC 50071 assessed as inhibition of bacterial metabolism within the biofilm at 8 ug/ml measured after 48 hrs by MTT assay relative to control

Staphylococcus aureus [20] = conditions: ATCC 25923, time 48 hrs; remark: listed apart in the source
Description: Antibiofilm activity against Staphylococcus aureus ATCC 25923 assessed as inhibition of bacterial metabolism within the biofilm at 8 ug/ml measured after 48 hrs by MTT assay relative to control

Acinetobacter baumannii [21] = conditions: ATCC 19606 = CIP 70.34 = JCM 6841, time 48 hrs; remark: listed apart in the source
Description: Antibiofilm activity against Acinetobacter baumannii ATCC 19606 assessed as inhibition of bacterial metabolism within the biofilm at 8 ug/ml measured after 48 hrs by MTT assay relative to control

[22] = system: Pectobacterium carotovorum; conditions: ATCC 15713, time 48 hrs; remark: listed apart in the source
Description: Antibiofilm activity against Pectobacterium carotovorum ATCC 15713 assessed as inhibition of bacterial metabolism within the biofilm at 8 ug/ml measured after 48 hrs by MTT assay relative to control

Escherichia coli [23] = conditions: DSM 8579, time 48 hrs; remark: listed apart in the source
Description: Antibiofilm activity against Escherichia coli DSM 8579 assessed as inhibition of bacterial metabolism within the biofilm at 40 ug/ml measured after 48 hrs by MTT assay relative to control

Escherichia coli [24] = conditions: DSM 8579, time 48 hrs; remark: listed apart in the source
Description: Antibiofilm activity against Escherichia coli DSM 8579 assessed as inhibition of bacterial metabolism within the biofilm at 80 ug/ml measured after 48 hrs by MTT assay relative to control

SMILES | inhibition at 4 µg/mL (Listeria monocytogenes [1]) [%] | inhibition at 4 µg/mL (Pseudomonas aeruginosa [2]) [%] | inhibition at 4 µg/mL (Staphylococcus aureus [3]) [%] | inhibition at 4 µg/mL (Acinetobacter baumannii [4]) [%] | inhibition at 4 µg/mL [5] [%] | inhibition at 8 µg/mL (Listeria monocytogenes [6]) [%] | inhibition at 8 µg/mL (Pseudomonas aeruginosa [7]) [%] | inhibition at 8 µg/mL (Staphylococcus aureus [8]) [%] | inhibition at 8 µg/mL (Acinetobacter baumannii [9]) [%] | inhibition at 8 µg/mL [10] [%] | inhibition at 40 µg/mL (Escherichia coli [11]) [%] | inhibition at 80 µg/mL (Escherichia coli [12]) [%] | inhibition at 4 µg/mL (Listeria monocytogenes [13]) [%] | inhibition at 4 µg/mL (Pseudomonas aeruginosa [14]) [%] | inhibition at 4 µg/mL (Staphylococcus aureus [15]) [%] | inhibition at 4 µg/mL (Acinetobacter baumannii [16]) [%] | inhibition at 4 µg/mL [17] [%] | inhibition at 8 µg/mL (Listeria monocytogenes [18]) [%] | inhibition at 8 µg/mL (Pseudomonas aeruginosa [19]) [%] | inhibition at 8 µg/mL (Staphylococcus aureus [20]) [%] | other results
CC(C)c1cc2c(c(O)c1O)[C@@]1(C(=O)O)CCCC(C)(C)[C@@H]1CC2 [CARNOSIC ACID] | 0 | 51.7 | 64.1 | 18.9 | 43.6 | 0 | 83 | 83.7 | 91.2 | 25.8 | 60 | 78.5 | 33.3 | 27.7 | 33.5 | 36.3 | 41.3 | 55.6 | 42.7 | 35.5 | inhibition at 8 µg/mL (Acinetobacter baumannii [21]): 57%; inhibition at 8 µg/mL [22]: 47.3%; inhibition at 40 µg/mL (Escherichia coli [23]): 2.7%; inhibition at 80 µg/mL (Escherichia coli [24]): 10.7%
CO[C@@H]1c2cc(C(C)C)c(O)c(O)c2[C@@]23CCCC(C)(C)[C@@H]2[C@@H]1OC3=O | 0 | 55.8 | 34.4 | 12.7 | 35.5 | 0 | 76.5 | 91.8 | 21 | 67.7 | 0 | 0 | 23.6 | 0 | 45.3 | 49.2 | 4.4 | 29.7 | 1.5 | 34.6 | inhibition at 8 µg/mL (Acinetobacter baumannii [21]): 38.8%; inhibition at 8 µg/mL [22]: 5.7%; inhibition at 40 µg/mL (Escherichia coli [23]): 0%; inhibition at 80 µg/mL (Escherichia coli [24]): 6.1%
CCCCCC [HEXANE] | 92.4 | 94.8 | 71.8 | 35.7 | 94.8 | 98.3 | 97.9 | 93.7 | 48.5 | 97.8 | 87.6 | 95.8 | 49.1 | 95.5 | 98.6 | 25.2 | 45.5 | 77.3 | 97 | 99.2 | inhibition at 8 µg/mL (Acinetobacter baumannii [21]): 34.7%; inhibition at 8 µg/mL [22]: 49.4%; inhibition at 40 µg/mL (Escherichia coli [23]): 74.2%; inhibition at 80 µg/mL (Escherichia coli [24]): 78%
